Laboratory results reported in ChEMBL document CHEMBL1201862, “PubChem BioAssay data set” (2004).
Each block holds one compound with its values, some of them ahead of it. Activity calls are given as the source filed them.

Experiments:
[1] = target: T1, Alkaline phosphatase, tissue-nonspecific isozyme (Homo sapiens, UniProt P05186)
T1 sequence (P05186 whole entry): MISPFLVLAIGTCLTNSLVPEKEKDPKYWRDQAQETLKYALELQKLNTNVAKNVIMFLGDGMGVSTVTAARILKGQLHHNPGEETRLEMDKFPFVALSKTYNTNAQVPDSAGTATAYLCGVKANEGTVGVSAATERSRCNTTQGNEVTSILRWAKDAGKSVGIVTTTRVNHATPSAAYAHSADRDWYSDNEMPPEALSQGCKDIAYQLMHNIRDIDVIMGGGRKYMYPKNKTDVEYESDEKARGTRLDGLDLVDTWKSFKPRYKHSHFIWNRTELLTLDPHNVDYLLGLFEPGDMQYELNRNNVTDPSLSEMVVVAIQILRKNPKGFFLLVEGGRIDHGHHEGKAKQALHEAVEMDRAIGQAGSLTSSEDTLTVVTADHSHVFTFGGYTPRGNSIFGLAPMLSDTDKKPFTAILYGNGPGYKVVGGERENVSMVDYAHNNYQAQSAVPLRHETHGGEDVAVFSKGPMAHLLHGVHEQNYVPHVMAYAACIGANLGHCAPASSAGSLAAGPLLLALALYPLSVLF

[2] = target: Voltage-dependent T-type calcium channel subunit alpha-1H (Homo sapiens, UniProt O95180); type: functional;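 further: channel activity triggered by adding a high calcium stimulation buffer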
Sequence of Voltage-dependent T-type calcium channel subunit alpha-1H (O95180 whole entry): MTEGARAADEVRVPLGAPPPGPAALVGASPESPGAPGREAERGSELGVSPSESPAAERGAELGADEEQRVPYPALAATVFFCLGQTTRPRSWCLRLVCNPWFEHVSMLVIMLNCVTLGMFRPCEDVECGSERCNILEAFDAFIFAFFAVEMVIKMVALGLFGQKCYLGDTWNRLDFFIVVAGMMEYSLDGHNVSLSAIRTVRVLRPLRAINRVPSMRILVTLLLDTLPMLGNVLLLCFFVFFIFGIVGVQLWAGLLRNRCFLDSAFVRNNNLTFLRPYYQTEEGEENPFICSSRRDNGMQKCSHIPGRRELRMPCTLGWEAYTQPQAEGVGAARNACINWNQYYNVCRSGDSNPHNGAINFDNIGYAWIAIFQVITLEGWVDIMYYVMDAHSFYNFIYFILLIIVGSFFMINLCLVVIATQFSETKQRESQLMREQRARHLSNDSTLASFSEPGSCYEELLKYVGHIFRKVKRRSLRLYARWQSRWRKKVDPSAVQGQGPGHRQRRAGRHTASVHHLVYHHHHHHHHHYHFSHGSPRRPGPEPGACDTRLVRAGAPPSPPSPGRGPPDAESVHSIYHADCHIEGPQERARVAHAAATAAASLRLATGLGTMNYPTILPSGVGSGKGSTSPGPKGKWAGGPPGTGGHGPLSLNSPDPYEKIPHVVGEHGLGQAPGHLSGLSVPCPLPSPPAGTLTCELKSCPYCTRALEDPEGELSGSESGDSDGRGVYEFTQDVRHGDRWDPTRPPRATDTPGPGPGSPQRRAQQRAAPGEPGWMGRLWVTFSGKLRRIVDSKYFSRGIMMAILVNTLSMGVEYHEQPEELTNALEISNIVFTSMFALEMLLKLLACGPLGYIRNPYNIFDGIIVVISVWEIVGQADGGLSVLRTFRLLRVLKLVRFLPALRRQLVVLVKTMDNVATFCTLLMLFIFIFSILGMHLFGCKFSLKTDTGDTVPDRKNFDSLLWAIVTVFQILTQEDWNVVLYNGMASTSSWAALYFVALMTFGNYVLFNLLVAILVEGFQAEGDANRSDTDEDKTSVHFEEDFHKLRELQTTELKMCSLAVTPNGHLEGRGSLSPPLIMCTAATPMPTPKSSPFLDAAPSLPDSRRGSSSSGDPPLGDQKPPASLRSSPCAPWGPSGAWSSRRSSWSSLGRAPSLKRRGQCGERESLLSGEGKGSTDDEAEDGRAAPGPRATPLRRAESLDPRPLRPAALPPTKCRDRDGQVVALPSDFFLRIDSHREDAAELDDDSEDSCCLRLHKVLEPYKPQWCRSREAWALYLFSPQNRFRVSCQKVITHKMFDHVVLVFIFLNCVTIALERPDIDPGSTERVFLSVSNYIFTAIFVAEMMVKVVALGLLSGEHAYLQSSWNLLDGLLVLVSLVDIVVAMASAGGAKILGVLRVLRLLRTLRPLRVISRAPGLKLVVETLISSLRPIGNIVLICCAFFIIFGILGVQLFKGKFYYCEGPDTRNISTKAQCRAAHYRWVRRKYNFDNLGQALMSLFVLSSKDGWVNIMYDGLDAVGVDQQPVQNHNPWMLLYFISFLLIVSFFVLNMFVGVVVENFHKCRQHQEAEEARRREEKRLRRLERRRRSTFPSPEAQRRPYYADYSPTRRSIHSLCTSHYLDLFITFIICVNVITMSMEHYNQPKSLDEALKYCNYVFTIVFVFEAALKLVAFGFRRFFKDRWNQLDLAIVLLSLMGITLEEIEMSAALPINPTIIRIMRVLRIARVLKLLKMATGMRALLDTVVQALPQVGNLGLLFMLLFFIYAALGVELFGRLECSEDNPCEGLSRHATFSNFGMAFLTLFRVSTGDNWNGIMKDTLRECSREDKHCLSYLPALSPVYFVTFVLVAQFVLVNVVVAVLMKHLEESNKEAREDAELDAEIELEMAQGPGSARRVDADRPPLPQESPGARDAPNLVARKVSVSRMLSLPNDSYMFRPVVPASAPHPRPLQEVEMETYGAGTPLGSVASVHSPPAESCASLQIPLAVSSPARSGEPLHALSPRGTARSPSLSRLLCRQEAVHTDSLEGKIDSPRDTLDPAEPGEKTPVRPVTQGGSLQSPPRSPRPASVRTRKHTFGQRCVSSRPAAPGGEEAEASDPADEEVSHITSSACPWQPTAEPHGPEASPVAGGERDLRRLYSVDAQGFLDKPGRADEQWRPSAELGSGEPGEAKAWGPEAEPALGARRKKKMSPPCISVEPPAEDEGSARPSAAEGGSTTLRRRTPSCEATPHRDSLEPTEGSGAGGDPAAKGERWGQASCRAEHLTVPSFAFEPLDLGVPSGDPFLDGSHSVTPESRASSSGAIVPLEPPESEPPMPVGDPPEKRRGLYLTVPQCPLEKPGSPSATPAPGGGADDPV

[3] = target: Acyl-homoserine lactone acylase PvdQ (Pseudomonas aeruginosa (strain LESB58), UniProt Q9I194); assay: P. aeruginosa PvdQ acylase inhibitors, dose response, biochemical, fluorescence, plate reader and imaging, cherry-picks (AID 493231)
Sequence of Acyl-homoserine lactone acylase PvdQ (Q9I194 24-193 limits assumed): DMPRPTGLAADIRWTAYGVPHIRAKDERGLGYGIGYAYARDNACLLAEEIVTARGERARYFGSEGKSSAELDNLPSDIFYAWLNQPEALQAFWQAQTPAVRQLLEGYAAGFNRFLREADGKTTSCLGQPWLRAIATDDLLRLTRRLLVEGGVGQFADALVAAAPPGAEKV
Sequence of Acyl-homoserine lactone acylase PvdQ (Q9I194 217-762 limits assumed): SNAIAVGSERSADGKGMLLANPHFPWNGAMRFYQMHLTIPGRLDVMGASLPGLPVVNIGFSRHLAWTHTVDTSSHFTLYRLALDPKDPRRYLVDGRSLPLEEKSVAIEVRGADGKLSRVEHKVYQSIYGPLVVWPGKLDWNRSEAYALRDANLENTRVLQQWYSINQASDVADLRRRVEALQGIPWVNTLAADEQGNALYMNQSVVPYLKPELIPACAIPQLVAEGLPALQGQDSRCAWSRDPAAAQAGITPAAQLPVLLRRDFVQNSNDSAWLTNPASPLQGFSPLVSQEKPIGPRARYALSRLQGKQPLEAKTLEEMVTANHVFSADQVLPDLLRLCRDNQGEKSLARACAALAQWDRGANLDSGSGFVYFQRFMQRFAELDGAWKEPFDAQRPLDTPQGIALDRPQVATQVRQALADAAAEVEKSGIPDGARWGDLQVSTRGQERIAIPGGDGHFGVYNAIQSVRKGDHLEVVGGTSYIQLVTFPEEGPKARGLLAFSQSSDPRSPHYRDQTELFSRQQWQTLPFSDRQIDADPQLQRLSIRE

[4] = target: X-box-binding protein 1 (Homo sapiens, UniProt P17861); type: functional, Cricetulus griseus;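 further: confirmatory dose-response counter-screen serving a CHOP assay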
Sequence of X-box-binding protein 1 (P17861 whole entry): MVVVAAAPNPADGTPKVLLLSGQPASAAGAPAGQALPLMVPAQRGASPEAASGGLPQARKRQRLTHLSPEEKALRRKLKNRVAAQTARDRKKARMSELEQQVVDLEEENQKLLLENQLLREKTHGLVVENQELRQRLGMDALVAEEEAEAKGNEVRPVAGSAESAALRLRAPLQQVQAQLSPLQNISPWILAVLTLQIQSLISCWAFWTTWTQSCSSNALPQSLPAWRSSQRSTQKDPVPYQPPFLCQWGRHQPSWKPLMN

[5] = growth suppression of beta-catenin-knockout colon cells, dose response, cell-based, HCT116, human colon tumor (AID 1045); type: functional;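 further: HCT116 colon tumor cells with beta catenin knocked out; cells exposed to compound for 60 hours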
[6] = growth suppression of PTEN-null colon cells, dose response, cell-based, HCT116 PTEN knockout (AID 1047); type: functional;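 further: HCT116 colon tumor cells with PTEN knocked out; cells exposed to compound for 60 hours before readout; potency for loss of cell viability measured by luminescence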
[7] = target: T2, RNA-binding protein pos-1 (Caenorhabditis elegans, UniProt G5EF15); assay: inhibitors of POS-1/mex-3 RNA binding, dose response, biochemical, fluorescence polarization (AID 1964);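 further: purified POS-1 fused to maltose binding protein made in E. coli; potency of compounds blocking POS-1 binding to fluorescent RNA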
T2 sequence (G5EF15 whole entry): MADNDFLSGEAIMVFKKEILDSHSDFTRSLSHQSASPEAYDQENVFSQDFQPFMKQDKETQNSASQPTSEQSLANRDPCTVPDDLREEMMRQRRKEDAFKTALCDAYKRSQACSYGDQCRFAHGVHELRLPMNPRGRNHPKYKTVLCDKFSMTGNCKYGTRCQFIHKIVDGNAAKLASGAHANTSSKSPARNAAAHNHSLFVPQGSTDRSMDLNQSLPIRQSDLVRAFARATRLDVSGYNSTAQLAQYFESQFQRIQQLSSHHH

[8] = target: T3, Zinc finger protein mex-5 (Caenorhabditis elegans, UniProt Q9XUB2); assay: MEX-5/TCR-2 RNA interaction inhibitors, dose response, biochemical, C. elegans, fluorescence polarization (AID 1960)
T3 sequence (Q9XUB2 whole entry): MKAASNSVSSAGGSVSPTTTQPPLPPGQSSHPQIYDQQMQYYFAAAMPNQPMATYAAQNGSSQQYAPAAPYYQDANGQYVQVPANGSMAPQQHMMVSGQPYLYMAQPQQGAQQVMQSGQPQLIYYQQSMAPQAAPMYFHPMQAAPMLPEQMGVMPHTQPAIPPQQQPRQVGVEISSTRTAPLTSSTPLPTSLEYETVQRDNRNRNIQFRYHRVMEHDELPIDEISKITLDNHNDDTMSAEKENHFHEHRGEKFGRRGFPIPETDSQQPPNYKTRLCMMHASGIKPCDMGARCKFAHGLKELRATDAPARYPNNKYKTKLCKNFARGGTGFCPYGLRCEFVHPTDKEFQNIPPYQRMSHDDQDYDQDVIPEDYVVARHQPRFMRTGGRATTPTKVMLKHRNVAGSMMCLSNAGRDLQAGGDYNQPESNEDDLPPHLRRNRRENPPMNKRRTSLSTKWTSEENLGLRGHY

[9] = target: T4, Insulin-degrading enzyme (Homo sapiens, UniProt P14735); assay: Dose Response: Fluorescence polarization-based cell-based high throughput dose response assay for inhibitors of insulin-degrading enzyme (IDE). [Related pubchem assays: 434962 (Primary screen (IDE inhibitors in singlicate)), 449730 (Counterscreen (Cytotoxicity in triplicate)), 435028 (Confirmation (IDE inhibitors in triplicate)), 434984 (Summary …; type: functional
T4 sequence (P14735 whole entry): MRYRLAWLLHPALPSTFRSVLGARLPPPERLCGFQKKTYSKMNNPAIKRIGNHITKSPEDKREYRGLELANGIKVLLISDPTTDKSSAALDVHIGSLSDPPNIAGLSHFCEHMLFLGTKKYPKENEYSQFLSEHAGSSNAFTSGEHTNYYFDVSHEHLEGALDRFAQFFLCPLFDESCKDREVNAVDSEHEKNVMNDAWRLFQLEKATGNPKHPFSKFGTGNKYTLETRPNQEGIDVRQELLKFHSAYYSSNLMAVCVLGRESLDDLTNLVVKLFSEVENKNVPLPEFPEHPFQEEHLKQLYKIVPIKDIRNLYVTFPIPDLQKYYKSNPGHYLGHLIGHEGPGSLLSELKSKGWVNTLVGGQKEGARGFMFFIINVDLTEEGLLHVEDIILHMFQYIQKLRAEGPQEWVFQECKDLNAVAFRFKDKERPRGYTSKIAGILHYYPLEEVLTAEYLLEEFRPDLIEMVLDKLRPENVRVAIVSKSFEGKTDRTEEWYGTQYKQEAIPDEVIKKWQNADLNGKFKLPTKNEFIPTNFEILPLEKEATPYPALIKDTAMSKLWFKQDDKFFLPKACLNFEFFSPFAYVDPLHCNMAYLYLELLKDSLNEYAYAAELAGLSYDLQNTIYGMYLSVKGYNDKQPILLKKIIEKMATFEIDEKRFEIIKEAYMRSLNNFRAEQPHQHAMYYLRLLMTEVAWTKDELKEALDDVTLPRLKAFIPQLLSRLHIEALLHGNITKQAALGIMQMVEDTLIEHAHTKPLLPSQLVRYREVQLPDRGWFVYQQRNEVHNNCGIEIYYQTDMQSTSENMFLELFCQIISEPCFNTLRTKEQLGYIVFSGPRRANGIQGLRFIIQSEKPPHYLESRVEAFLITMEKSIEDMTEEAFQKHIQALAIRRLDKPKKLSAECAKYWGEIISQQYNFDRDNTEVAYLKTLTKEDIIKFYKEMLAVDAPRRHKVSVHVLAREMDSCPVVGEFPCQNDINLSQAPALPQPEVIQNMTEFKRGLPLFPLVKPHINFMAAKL

[10] = Counterscreen for IDE inhibitors: Luminescence-based cell-based high throughput dose response assay to identify compounds that are cytotoxic to HEK cells. [Related pubchem assays: 434962 (Primary screen (IDE inhibitors in singlicate)), 449730 (Counterscreen (Cytotoxicity in triplicate)), 435028 (Confirmation (IDE inhibitors in triplicate)) …; type: functional; conditions: HEK293
[11] = MC4R antagonists, dose response, counter-screen for LGR2 antagonist project, cell-based, plate reader, cherry pick (AID 743444); type: functional;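 further: transfected HEK 293 cells stimulated with alpha-MSH peptide; potency of inhibitors of the alpha-MSH evoked signal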
[12] = HepG2 cell cytotoxicity, dose response, cytotoxicity control, plate reader, cherry-pick, antagonist series (AID 743416); type: functional, cell-based
[13] = HEK293 cell cytotoxicity, dose response, cytotoxicity control, plate reader, cherry-picked samples (AID 743446); type: functional, cell-based
[14] = LGR2 antagonists, dose response, cell-based, HEK293, CRE-luciferase reporter, cherry pick, set 2 (AID 743343); type: functional;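 further: transfected cells were stimulated with diluted bursicon conditioned medium after compound addition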
[15] = target: T5, Microphthalmia-associated transcription factor (Homo sapiens, UniProt O75030); assay: TRPM1 promoter luciferase signal decrease, dose response, MITF inhibitor project, cell-based, SK-MEL-5, cherry-picked, set 3 (AID 493073); type: functional
T5 sequence (O75030 whole entry): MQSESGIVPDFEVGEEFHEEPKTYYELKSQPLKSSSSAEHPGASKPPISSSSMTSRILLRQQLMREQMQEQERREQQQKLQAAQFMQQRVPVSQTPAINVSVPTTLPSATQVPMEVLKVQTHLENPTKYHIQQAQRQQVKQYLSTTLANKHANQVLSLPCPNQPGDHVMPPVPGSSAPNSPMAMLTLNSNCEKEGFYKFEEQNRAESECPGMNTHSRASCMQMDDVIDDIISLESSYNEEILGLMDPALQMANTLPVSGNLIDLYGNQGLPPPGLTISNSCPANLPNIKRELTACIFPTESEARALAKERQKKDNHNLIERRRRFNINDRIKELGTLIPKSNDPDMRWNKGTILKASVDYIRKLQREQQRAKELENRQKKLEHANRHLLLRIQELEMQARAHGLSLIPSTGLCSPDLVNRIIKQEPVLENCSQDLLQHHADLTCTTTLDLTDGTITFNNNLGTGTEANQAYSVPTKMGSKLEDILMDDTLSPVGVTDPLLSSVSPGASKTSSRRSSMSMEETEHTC

[16] = A549 cell cytotoxicity, dose response, cytotoxicity control, plate reader, cherry-pick, antagonist series (AID 743412); type: functional, cell-based
[17] = target: T6, Voltage-gated N-type calcium channel alpha-1B subunit/Amyloid beta A4 precursor protein-binding family A member 1 (Homo sapiens, UniProt Q00975+Q02410); assay: disruptors of Mint-PDZ/N-type channel peptide interaction – biochemical, HTRF, SAR follow-up (AID 2489); type: functional
[18] = target: T6, Voltage-gated N-type calcium channel alpha-1B subunit/Amyloid beta A4 precursor protein-binding family A member 1; assay: disruptors of Mint-PDZ/N-type channel peptide interaction – biochemical, HTRF, set 2, SAR follow-up (AID 434980); type: functional
[19] = target: C-C chemokine receptor type 6 (Homo sapiens, UniProt P51684); assay: CCR6 receptor antagonists, dose response, cell-based, luminescent beta-arrestin readout (AID 504728); type: functional
Sequence of C-C chemokine receptor type 6 (P51684 whole entry): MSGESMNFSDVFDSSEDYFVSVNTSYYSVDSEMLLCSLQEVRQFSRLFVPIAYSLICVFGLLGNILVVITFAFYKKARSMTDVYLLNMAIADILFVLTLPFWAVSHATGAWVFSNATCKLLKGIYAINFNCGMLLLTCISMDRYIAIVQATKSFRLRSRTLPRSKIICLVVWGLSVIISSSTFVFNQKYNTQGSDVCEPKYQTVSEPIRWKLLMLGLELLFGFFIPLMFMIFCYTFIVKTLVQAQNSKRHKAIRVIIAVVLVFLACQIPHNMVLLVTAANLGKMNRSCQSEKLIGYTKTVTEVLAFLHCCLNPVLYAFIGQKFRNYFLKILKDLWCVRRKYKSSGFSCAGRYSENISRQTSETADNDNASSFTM

[20] = target: Beta-galactosidase (Escherichia coli, UniProt Q8VNN2); assay: beta-galactosidase enzyme inhibitors and activators, dose response, artefact control for CCR6 antagonist project, biochemical, E. coli enzyme, set 3 (AID 504712); type: functional
Sequence of Beta-galactosidase (Q8VNN2 whole entry): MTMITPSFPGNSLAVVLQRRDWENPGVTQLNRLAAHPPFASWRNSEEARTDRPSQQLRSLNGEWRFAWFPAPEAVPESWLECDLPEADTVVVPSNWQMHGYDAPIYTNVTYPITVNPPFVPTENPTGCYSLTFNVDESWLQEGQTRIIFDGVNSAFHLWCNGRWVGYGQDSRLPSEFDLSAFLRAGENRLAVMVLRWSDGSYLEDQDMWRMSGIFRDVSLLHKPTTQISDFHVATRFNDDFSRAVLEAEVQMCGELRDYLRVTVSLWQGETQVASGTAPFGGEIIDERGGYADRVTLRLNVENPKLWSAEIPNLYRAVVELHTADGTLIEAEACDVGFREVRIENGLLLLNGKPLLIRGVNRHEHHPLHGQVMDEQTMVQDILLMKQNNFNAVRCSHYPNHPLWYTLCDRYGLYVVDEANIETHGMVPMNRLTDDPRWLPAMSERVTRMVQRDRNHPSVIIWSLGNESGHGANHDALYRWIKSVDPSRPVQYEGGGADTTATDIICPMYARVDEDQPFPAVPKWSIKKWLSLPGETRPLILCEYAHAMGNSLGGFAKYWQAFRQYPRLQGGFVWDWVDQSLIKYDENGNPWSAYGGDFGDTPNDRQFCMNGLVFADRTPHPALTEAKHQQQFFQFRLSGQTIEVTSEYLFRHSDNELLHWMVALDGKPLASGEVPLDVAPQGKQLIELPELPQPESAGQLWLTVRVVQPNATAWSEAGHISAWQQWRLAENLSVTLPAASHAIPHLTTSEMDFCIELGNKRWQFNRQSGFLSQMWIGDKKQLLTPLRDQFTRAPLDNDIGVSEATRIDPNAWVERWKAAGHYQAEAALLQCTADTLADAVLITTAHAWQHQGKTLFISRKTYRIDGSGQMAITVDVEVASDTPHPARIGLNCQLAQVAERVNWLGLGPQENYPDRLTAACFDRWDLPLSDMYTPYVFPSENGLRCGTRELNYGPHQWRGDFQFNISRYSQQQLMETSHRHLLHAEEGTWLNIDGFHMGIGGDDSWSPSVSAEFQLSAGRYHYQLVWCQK

[21] = target: T7, Mannose-6-phosphate isomerase (Homo sapiens, UniProt P34949); assay: human PMI inhibitors, high substrate, primary screen, biochemical, fluorescence intensity, high mannose 6-phosphate (AID 1220)
T7 sequence (P34949 whole entry): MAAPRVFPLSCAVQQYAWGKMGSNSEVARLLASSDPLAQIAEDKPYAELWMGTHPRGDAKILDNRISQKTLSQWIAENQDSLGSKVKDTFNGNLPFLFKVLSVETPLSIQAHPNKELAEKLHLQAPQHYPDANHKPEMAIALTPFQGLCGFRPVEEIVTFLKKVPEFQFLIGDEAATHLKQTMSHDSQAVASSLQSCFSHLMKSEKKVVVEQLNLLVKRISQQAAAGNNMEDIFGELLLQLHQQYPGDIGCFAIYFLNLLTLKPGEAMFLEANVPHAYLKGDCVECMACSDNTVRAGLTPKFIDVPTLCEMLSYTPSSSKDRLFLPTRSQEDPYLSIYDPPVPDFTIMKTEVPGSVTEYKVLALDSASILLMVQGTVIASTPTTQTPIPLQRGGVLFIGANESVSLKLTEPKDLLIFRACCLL

[22] = target: T8, Oxysterols receptor LXR-beta (Homo sapiens, UniProt P55055); assay: LXR agonists, Gal4 luciferase reporter, dose response, counter-screen for ssDAF-12 agonist project, cell-based, luminescence, HEK293, S. stercoralis campaign (AID 720737); type: functional; conditions: read-out: IC50 (the source's name)
T8 sequence (P55055 whole entry): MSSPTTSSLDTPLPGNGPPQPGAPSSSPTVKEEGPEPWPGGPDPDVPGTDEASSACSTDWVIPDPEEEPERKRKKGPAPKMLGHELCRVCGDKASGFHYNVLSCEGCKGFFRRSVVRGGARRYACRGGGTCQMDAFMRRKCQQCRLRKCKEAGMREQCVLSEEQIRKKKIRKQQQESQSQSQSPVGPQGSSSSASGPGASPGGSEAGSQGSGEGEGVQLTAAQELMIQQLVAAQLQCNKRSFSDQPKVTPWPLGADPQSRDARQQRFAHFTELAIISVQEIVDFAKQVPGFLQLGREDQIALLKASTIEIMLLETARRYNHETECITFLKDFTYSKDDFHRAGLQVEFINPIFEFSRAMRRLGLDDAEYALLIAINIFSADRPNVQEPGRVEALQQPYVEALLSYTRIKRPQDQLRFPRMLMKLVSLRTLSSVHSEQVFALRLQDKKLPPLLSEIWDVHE

[23] = Luminescence-based cell-based high throughput dose response assay to identify activators of the DAF-12 from the parasite S. stercoralis (ssDAF-12).; type: functional
[24] = target: T8, Oxysterols receptor LXR-beta; type: functional, cell-based
[25] = cells

- EC50 [1]: > 100 µM (not active)
SMILES: COc1ccc(OCC(=O)Nc2ccc3oc(-c4ccncc4)nc3c2)cc1

- EC50 [2]: 5.52 µM (active)
SMILES: CCOc1ccccc1OCCOc1ccccc1OC(C)C

SMILES: Cc1ccc(C(C#N)c2ccc(Cl)nn2)cc1 (stereo not given)
- AC50 [3]: 1.6 µM (active)

- Absolute IC50 (XBP1) [4]: < 10 µM
SMILES: Cc1cc2c(cc1C)CSC(c1ccccc1O)SC2

SMILES: COc1ccc(C(CCNCc2ccc(F)cc2)c2ccc(F)cc2)cc1 (stereo not given)
- Absolute IC50 (XBP1) [4]: 10 µM
- EC50 [5]: 7.18 µM (active)
- EC50 [6]: 9.32 µM (active)

SMILES: O=C(C1=NN(c2ccccc2)C2C(=O)N(c3ccccc3Cl)C(=O)C12)c1ccccc1 (stereo not given)
- EC50 [7]: > 300 µM (not active)
- EC50 [8]: > 300 µM (inconclusive)
- IC50 [9]: > 6.21 µM (active)
- IC50 [10]: > 55.7 µM (not active)

SMILES: CCOc1ccc(NC(=O)c2ccccn2)cc1
- AC50 [11]: 1.23 µM (active)
- AC50 [12]: > 52 µM (inactive)
- AC50 [3]: > 100 µM (inactive)
- AC50 [13]: > 52 µM (inactive)
- AC50 [14]: 0.999 µM (active)
- AC50 [15]: 4.4 µM (active)
- AC50 [16]: 43.4 µM (active)

- IC50 [17]: > 56.8 µM (inactive)
- IC50 [18]: 44.7 µM (active)
SMILES: O=C(NCCCc1ccccc1)c1cc(-c2ccco2)nc2ccccc12

- IC50 [19]: > 66.6 µM (inactive)
- IC50 [20]: > 66.6 µM (inactive)
SMILES: N#CC(=C1C=CC(=NO)C(Cl)=C1)c1ccc(Cl)cc1

- IC50 [19]: > 66.6 µM (inactive)
- IC50 [21]: > 50 µM (not active)
- IC50 [20]: > 66.6 µM (inactive)
SMILES: C/C(=N\O)C(=O)C(CN1CCCCC1)CN1CCCCC1

SMILES: Oc1cccc(/C=N/Nc2cccc3cccnc23)c1
- EC50 [22]: > 67.5 µM (inactive)
- EC50 [1]: > 100 µM (not active)
- IC50 [23]: > 67.5 µM (inactive)
- EC50 [24]: > 67.5 µM (inactive)
- EC50 [25]: > 67.5 µM (inactive)
